Our source for the Activity and ED50 values is ChEMBL document CHEMBL1158949, “Plant metabolites. New compounds and anti-inflammatory activity of Uncaria tomentosa” (1991).

Each structure is given as a SMILES string. Active and inactive are the calls of the source. No cut-off for these calls is given here.

Assay [1] concerns Rattus norvegicus. Nature of the assay: Inhibition of carrageenan-induced edema in Wistar rat paw at 0.04 mg/kg to 0.51 mg/kg, po. Format: functional, organism-based. On the technique in general: Carrageenan injected into the paw causes an acute inflammation.
Assay [2] concerns Rattus norvegicus. Briefly: Inhibition of carrageenan-induced edema in Wistar rat paw at 20 mg/kg, po after 3 hrs. The class given is functional.
For assay [3], the system named is Rattus norvegicus. Briefly: Inhibition of carrageenan-induced edema in po dosed Wistar rat paw. The class given is functional.
In assay [4] the test system is Rattus norvegicus. Briefly: Inhibition of carrageenan-induced edema in Wistar rat paw at 5 mg/kg, po. The class given is functional, organism-based. More on the design: dose 5 mg/kg.

Consider `C=C[C@H]1[C@H](O[C@@H]2O[C@H](CO)[C@@H](O)[C@H](O)[C@H]2O)OC=C(C(=O)OC)[C@H]1C[C@@H]1N[C@@H](C(=O)O)Cc2c1[nH]c1ccccc21`, for which the result in the assay on Rattus norvegicus [1] was inactive. Regarding `C[C@H]1[C@H](C)CC[C@]2(C(=O)O)CC[C@]3(C(=O)O)C(=CC[C@@H]4[C@@]5(C)CC[C@H](O[C@@H]6O[C@H](C)[C@H](O)[C@H](O[C@@H]7O[C@H](CO)[C@@H](O)[C@H](O)[C@H]7O)[C@H]6O)C(C)(C)[C@@H]5CC[C@]43C)[C@H]12`, the outcome with Rattus norvegicus [1] was inactive. With `CC1(C)CC[C@]2(C(=O)O)CC[C@]3(C)C(=CC[C@@H]4[C@@]5(C)CC[C@H](O)C(C)(C)[C@@H]5CC[C@]43C)[C@@H]2C1`, the result in the assay on Rattus norvegicus [1] and with Rattus norvegicus [2] was inactive.

`C[C@H]1[C@H](C)CC[C@]2(C(=O)O)CC[C@]3(C(=O)O[C@@H]4O[C@H](CO)[C@@H](O)[C@H](O)[C@H]4O)C(=CC[C@@H]4[C@@]5(C)CC[C@H](O[C@@H]6O[C@H](C)[C@@H](O)[C@H](O)[C@H]6O)C(C)(C)[C@@H]5CC[C@]43C)[C@H]12`: the outcome with Rattus norvegicus [1] was inactive. This molecule also yielded an Activity in the assay with Rattus norvegicus [2] of 33%. For `C[C@@H]1CC[C@]2(C(=O)O)CC[C@]3(C)C(=CC[C@@H]4[C@@]5(C)CC[C@H](O)C(C)(C)[C@@H]5[C@H](O)C[C@]43C)[C@@H]2[C@]1(C)O` the same measures were “inactive” and “inactive”. Take `COc1ccc2c(c1)c(CC(=O)O)c(C)n2C(=O)c1ccc(Cl)cc1` [INDOMETHACIN]: the ED50 with Rattus norvegicus [3] turned out to be 0.014 mmol. Also, the result in the assay on Rattus norvegicus [4] was Active. In the case of `C[C@H]1[C@H](C)CC[C@]2(C(=O)O[C@@H]3O[C@H](CO)[C@@H](O)[C@H](O)[C@H]3O)CC[C@]3(C(=O)O)C(=CC[C@@H]4[C@@]5(C)CC[C@H](O[C@@H]6O[C@H](C)[C@@H](O)[C@H](O)[C@H]6O)C(C)(C)[C@@H]5CC[C@]43C)[C@H]12`, the result in the assay on Rattus norvegicus [1] was inactive. Same read-out and setting: for `C[C@H]1[C@H](C)CC[C@]2(C(=O)O[C@@H]3O[C@H](CO)[C@@H](O)[C@H](O)[C@H]3O)CC[C@]3(C(=O)O)C(=CC[C@@H]4[C@@]5(C)CC[C@H](O[C@@H]6O[C@H](C)[C@H](O)[C@H](O)[C@H]6O)C(C)(C)[C@@H]5CC[C@]43C)[C@H]12` the value was “inactive”; for `C[C@H]1[C@H](C)CC[C@]2(C(=O)O)CC[C@]3(C(=O)O[C@@H]4O[C@H](CO)[C@@H](O)[C@H](O)[C@H]4O)C(=CC[C@@H]4[C@@]5(C)CC[C@H](O[C@@H]6O[C@H](C)[C@H](O)[C@H](O[C@@H]7O[C@H](CO)[C@@H](O)[C@H](O)[C@H]7O)[C@H]6O)C(C)(C)[C@@H]5CC[C@]43C)[C@H]12`, “inactive”; for `C[C@H]1[C@H](C)CC[C@]2(C(=O)O[C@@H]3O[C@H](CO)[C@@H](O)[C@H](O)[C@H]3O)CC[C@]3(C(=O)O)C(=CC[C@@H]4[C@@]5(C)CC[C@H](O[C@@H]6O[C@H](C)[C@H](O)[C@H](O[C@@H]7O[C@H](CO)[C@@H](O)[C@H](O)[C@H]7O)[C@H]6O)C(C)(C)[C@@H]5CC[C@]43C)[C@H]12`, “inactive”. On the same count and under the same terms, then `C[C@H]1[C@H](C)CC[C@]2(C(=O)O)CC[C@]3(C)C(=CC[C@@H]4[C@@]5(C)CC[C@H](O)C(C)(C)[C@@H]5CC[C@]43C)[C@H]12`, with “inactive”; and `COC(=O)[C@]12CC[C@@H](C)[C@@](C)(O)[C@H]1C1=CC[C@@H]3[C@@]4(C)CC[C@H](O)[C@@](C)(C(=O)OC)[C@@H]4[C@H](O)C[C@@]3(C)[C@]1(C)CC2`, with “inactive”. On the same count and under the same terms, for `C[C@H]1[C@H](C)CC[C@]2(C(=O)O)CC[C@]3(C(=O)O[C@@H]4O[C@H](CO)[C@@H](O)[C@H](O)[C@H]4O)C(=CC[C@@H]4[C@@]5(C)CC[C@H](O[C@@H]6O[C@H](C)[C@H](O)[C@H](O)[C@H]6O)C(C)(C)[C@@H]5CC[C@]43C)[C@H]12` the value was “inactive”.
